Results published in patent publication US20050197350A1, “Novel quinoline, tetrahydroquinazoline, and pyrimidine derivatives and methods of treatment related to the use thereof” (TAISHO PHARMACEUTICAL CO., LTD., priority 2003, published 2005).

tested on: MCH receptors; experiment: MCH receptor activity class (method not given); conditions: MCH receptor; class by percent of control at 10^-7 M or IC50

Compound	class
Cc1noc(C)c1NC(=S)N[C@H]1CC[C@@H](Nc2nc3c(c(N(C)C)n2)CCCC3)CC1 [compound 2085]	3 (Class 3 The value of percent of control at 10^−7 M was more than 60% or the value of IC50 was more than 200 nM.)

same assay, conditions: class by percent of control at 10^-7 M or IC50

Compound	class
CN(C)c1nc(N[C@H]2CC[C@@H](NC(=S)Nc3ccc(-c4cnco4)cc3)CC2)nc2c1CCCC2 [compound 2086]	3 (Class 3 The value of percent of control at 10^−7 M was more than 60% or the value of IC50 was more than 200 nM.)
CN(C)c1nc(N[C@H]2CC[C@@H](NC(=S)Nc3ccc(N4CCOCC4)nc3)CC2)nc2c1CCCC2 [compound 2087]	3 (Class 3 The value of percent of control at 10^−7 M was more than 60% or the value of IC50 was more than 200 nM.)
CN(C)c1nc(N[C@H]2CC[C@@H](NC(=S)Nc3ccc(Oc4ccccc4)nc3)CC2)nc2c1CCCC2 [compound 2088]	3 (Class 3 The value of percent of control at 10^−7 M was more than 60% or the value of IC50 was more than 200 nM.)
CN(C)c1cc(N[C@H]2CC[C@@H](NC(=O)Nc3ccccc3Cl)CC2)nc2ccccc12 [compound 2089]	2 (Class 2: The value of percent of control at 10^−7 M was from 40% to 60% or the value of IC′50 was from 50 nM to 200 nM.)
Cc1cccc(C)c1NC(=O)N[C@H]1CC[C@@H](Nc2cc(N(C)C)c3ccccc3n2)CC1 [compound 2090]	3 (Class 3 The value of percent of control at 10^−7 M was more than 60% or the value of IC50 was more than 200 nM.)
CN(C)c1cc(N[C@H]2CC[C@@H](NC(=O)Nc3ccc(F)cc3F)CC2)nc2ccccc12 [compound 2091]	3 (Class 3 The value of percent of control at 10^−7 M was more than 60% or the value of IC50 was more than 200 nM.)
CCc1cccc(C)c1NC(=O)N[C@H]1CC[C@@H](Nc2cc(N(C)C)c3ccccc3n2)CC1 [compound 2092, N-(cis-4-{[4-(dimethylamino)quinolin-2-yl]amino}cyclohexyl)-N′-(2-ethyl-6-methylphenyl)urea]	2 (Class 2: The value of percent of control at 10^−7 M was from 40% to 60% or the value of IC′50 was from 50 nM to 200 nM.)
CN(C)c1cc(N[C@H]2CC[C@@H](NC(=O)Nc3ccc(F)cc3)CC2)nc2ccccc12 [compound 2094]	3 (Class 3 The value of percent of control at 10^−7 M was more than 60% or the value of IC50 was more than 200 nM.)
CSc1ccc(NC(=O)N[C@H]2CC[C@@H](Nc3cc(N(C)C)c4ccccc4n3)CC2)cc1 [compound 2095]	3 (Class 3 The value of percent of control at 10^−7 M was more than 60% or the value of IC50 was more than 200 nM.)
CN(C)c1cc(N[C@H]2CC[C@@H](NC(=O)Nc3ccccc3C(F)(F)F)CC2)nc2ccccc12 [compound 2096]	3 (Class 3 The value of percent of control at 10^−7 M was more than 60% or the value of IC50 was more than 200 nM.)
Cc1cc(C)c(NC(=O)N[C@H]2CC[C@@H](Nc3cc(N(C)C)c4ccccc4n3)CC2)c(C)c1 [compound 2097, N-(cis-4-{[4-(dimethylamino)quinolin-2-yl]amino}cyclohexyl)-N′-mesitylurea]	1 (Class 1: The value of percent of control at 10^−7 M was less than 40% or the value of IC50 was less than 50 nM.)
Cc1ccccc1NC(=O)N[C@H]1CC[C@@H](Nc2cc(N(C)C)c3ccccc3n2)CC1 [compound 2098]	3 (Class 3 The value of percent of control at 10^−7 M was more than 60% or the value of IC50 was more than 200 nM.)
CN(C)c1cc(N[C@H]2CC[C@@H](NC(=O)Nc3c(Cl)cc(Cl)cc3Cl)CC2)nc2ccccc12 [compound 2099, N-(cis-4-{[4-(dimethylamino)quinolin-2-yl]amino}cyclohexyl)-N′-(2,4,6-trichlorophenyl)urea]	2 (Class 2: The value of percent of control at 10^−7 M was from 40% to 60% or the value of IC′50 was from 50 nM to 200 nM.)
CN(C)c1cc(N[C@H]2CC[C@@H](NC(=O)Nc3c(F)cc(Br)cc3Br)CC2)nc2ccccc12 [compound 2101]	2 (Class 2: The value of percent of control at 10^−7 M was from 40% to 60% or the value of IC′50 was from 50 nM to 200 nM.)
CCc1cccc(CC)c1NC(=O)N[C@H]1CC[C@@H](Nc2cc(N(C)C)c3ccccc3n2)CC1 [compound 2102]	1 (Class 1: The value of percent of control at 10^−7 M was less than 40% or the value of IC50 was less than 50 nM.)
CN(C)c1cc(N[C@H]2CC[C@@H](NC(=O)Nc3c(Cl)cccc3C(F)(F)F)CC2)nc2ccccc12 [compound 2103]	3 (Class 3 The value of percent of control at 10^−7 M was more than 60% or the value of IC50 was more than 200 nM.)
Cc1cccc(Cl)c1NC(=O)N[C@H]1CC[C@@H](Nc2cc(N(C)C)c3ccccc3n2)CC1 [compound 2104]	3 (Class 3 The value of percent of control at 10^−7 M was more than 60% or the value of IC50 was more than 200 nM.)
CN(C)c1cc(N[C@H]2CC[C@@H](NC(=O)NCc3ccccc3Cl)CC2)nc2ccccc12 [compound 2105]	2 (Class 2: The value of percent of control at 10^−7 M was from 40% to 60% or the value of IC′50 was from 50 nM to 200 nM.)
CCc1cccc(C(C)C)c1NC(=O)N[C@H]1CC[C@@H](Nc2cc(N(C)C)c3ccccc3n2)CC1 [compound 2106, N-(cis-4-{[4-(dimethylamino)quinolin-2-yl]amino}cyclohexyl)-N′-(2-ethyl-6-isopropylphenyl)urea]	2 (Class 2: The value of percent of control at 10^−7 M was from 40% to 60% or the value of IC′50 was from 50 nM to 200 nM.)
CCc1ccccc1NC(=O)N[C@H]1CC[C@@H](Nc2cc(N(C)C)c3ccccc3n2)CC1 [compound 2107]	3 (Class 3 The value of percent of control at 10^−7 M was more than 60% or the value of IC50 was more than 200 nM.)
CN(C)c1cc(N[C@H]2CC[C@@H](NC(=O)Nc3ccccc3I)CC2)nc2ccccc12 [compound 2108]	3 (Class 3 The value of percent of control at 10^−7 M was more than 60% or the value of IC50 was more than 200 nM.)
Cc1cccc(C(C)C)c1NC(=O)N[C@H]1CC[C@@H](Nc2cc(N(C)C)c3ccccc3n2)CC1 [compound 2109, N-(cis-4-{[4-(dimethylamino)quinolin-2-yl]amino}cyclohexyl)-N′-(2-isopropyl-6-methylphenyl)urea]	2 (Class 2: The value of percent of control at 10^−7 M was from 40% to 60% or the value of IC′50 was from 50 nM to 200 nM.)
CC(C)c1ccccc1NC(=O)N[C@H]1CC[C@@H](Nc2cc(N(C)C)c3ccccc3n2)CC1 [compound 2110]	3 (Class 3 The value of percent of control at 10^−7 M was more than 60% or the value of IC50 was more than 200 nM.)
Cc1c(NC(=O)N[C@H]2CC[C@@H](Nc3cc(N(C)C)c4ccccc4n3)CC2)cccc1[N+](=O)[O-] [compound 2111]	3 (Class 3 The value of percent of control at 10^−7 M was more than 60% or the value of IC50 was more than 200 nM.)
CCCc1ccccc1NC(=O)N[C@H]1CC[C@@H](Nc2cc(N(C)C)c3ccccc3n2)CC1 [compound 2112]	3 (Class 3 The value of percent of control at 10^−7 M was more than 60% or the value of IC50 was more than 200 nM.)
Cc1cccc(C(C)(C)C)c1NC(=O)N[C@H]1CC[C@@H](Nc2cc(N(C)C)c3ccccc3n2)CC1 [compound 2113, N-(2-tert-butyl-6-methylphenyl)-N′-(cis-4-{[4-(dimethylamino)quinolin-2-yl]amino}cyclohexyl)urea]	1 (Class 1: The value of percent of control at 10^−7 M was less than 40% or the value of IC50 was less than 50 nM.)
